Target: human vasopressin V1a receptor subtype (Homo sapiens, UniProt P37288)
Sequence (P37288 whole entry): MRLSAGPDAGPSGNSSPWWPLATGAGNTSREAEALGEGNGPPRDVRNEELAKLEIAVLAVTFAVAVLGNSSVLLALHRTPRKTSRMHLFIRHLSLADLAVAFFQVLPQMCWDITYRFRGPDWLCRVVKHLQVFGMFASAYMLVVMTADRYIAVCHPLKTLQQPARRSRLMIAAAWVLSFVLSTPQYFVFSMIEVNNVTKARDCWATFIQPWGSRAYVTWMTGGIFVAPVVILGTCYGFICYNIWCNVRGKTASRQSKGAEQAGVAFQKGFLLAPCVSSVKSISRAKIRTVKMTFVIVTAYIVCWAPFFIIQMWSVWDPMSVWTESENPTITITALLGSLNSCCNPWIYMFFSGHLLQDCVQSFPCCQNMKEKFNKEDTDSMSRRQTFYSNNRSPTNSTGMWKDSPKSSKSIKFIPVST
Experiment: Vasopressin binding in CHO cell membranes expressing human vasopressin V1a subtype receptors
Conditions: 100 nM, [3H]Manning ligand
Description: Vasopressin Binding in Chinese Hamster Ovary Cell Membranes Expressing Human Vasopressin V1a Subtype Receptors
Chinese hamster ovary cells (CHO cells) stably transfected with the human vasopressin V1a subtype receptors were either obtained from Biosignal Inc., 1744 rue Williams, Montreal, Quebec, Canada or obtained from M. Thibonnier, Case Western Reserve University School of Medicine, Cleveland, Ohio. A. Passaging and Amplification of Cells: CHO cells transfected with the human vasopressin V1a subtype receptors obtained from M. Thibonnier (pZeoSV vector) are allowed to grow to confluency (approx. >90%) in T-150 flasks under sterile conditions, in a cell culture medium of F-12 Nutrient Mixture (HAM) with L-glutamine (Gibco Cat. # 11765-054) containing 15 mM HEPES (Gibco Cat. 15630-080), 1% antibiotic/antimycotic (add 5 mL 100×, Gibco Cat. 15240-062 per 500 mL F-12), 250 μg/mL Zeocin (add 1.25 mL of 100 mg/mL Invitrogen R-250-01 per 500 mL F-12) and 10% Fetal Bovine Serum (Qualified, heat inactivated, Gibco Cat. # 16140-063). The medium is removed by aspiration and the cells are washed with 10 mL of Hank's Balanced Salt solution (Gibco Cat. # 14175-095). The salt solution is removed by aspiration and the cells are trypsinized with 5 mL of trypsin-EDTA (0.05% trypsin, 0.53 mM EDTA-4Na, Gibco Cat. # 25300-070) for 1 min. The trypsin is removed by aspiration and the cells dislodged by tapping. Cell Culture medium (eg, 30 mL for 1:30 split) is immediately added and mixed well to inactivate trypsin. 1 mL of detached cells is added to new culture flasks containing fresh cell culture medium (eg, into 25 mL per T-150 flask), and mixed gently. The cells are incubated at 37° C. in 5% CO2. The medium is changed at 3 to 4 days interval (or as appropriate). The cells grow to confluency (approx. >75%–95%) within 7–8 days. All steps are done under sterile conditions. B. Membrane Preparation: The cells are washed twice gently with Hank's Balanced Salt solution (e.g,. use 10 mL per T-150 flask). The excess is removed and the cells are bathed for 15–30 min. in an enzyme-free Cell Dissociation Buffer (e.g. use 8 mL Hank's Based, Gibco Cat. # 13150-016 per T-150 flask) until the cells are loosened. The contents are transferred to centrifuge tubes (50 mL) kept in an ice bath. All subsequent steps are done at 4° C. The tubes are centrifuged at 300×g for 15 min (1380 rpm on SORVAL, Model RT6000D, using rotor for the 50 mL tubes). The supernatant is discarded and the cells suspended in homogeneizing buffer(10 mM Tris-HCl containing 0.25 M sucrose and 1 mM EDTA, pH 7.4) ensuring that the volume of the buffer is about ten times the volume of the cell pellet. The cells are pooled into a centrifuge tube (50 mL) and homogenized with Polytron at setting 6 for 10 sec. The homogenate is transferred into a Potter-Elvjehm homogenizer and homogenized with 3 strokes. The homogenate is centrifuged at 1500× g for 10 min at 4° C. (3100 rpm using SORVAL, model RT6000D, using the rotor for 50 mL tubes). The pellet is discarded. The supernatant is centrifuged at 100,000×g for 60 min. at 4° C. (Beckman L8-80M ultracentrifuge; spin at 37,500 rpm with rotor type 70 Ti for 50 mL tubes; 38,000 rpm with type 80Ti for 15 mL tubes; or 35,800 rpm with rotor type 45Ti). The supernantant is discarded and the pellet suspended in 3 to 4 mL of Tris buffer (50 mM TRIS-HCl, pH 7.4). The protein content is estimated by the Bradford or Lowry method. The volume of the membrane suspension is adjusted with the membrane buffer (50 mM Tris-HCl containing 0.1% BSA and 0.1 mM PMSF) to give 3.0 mg/mL (or as appropriate) of protein. The membranes are aliquoted and stored at −70° C. C. […]
Work on `CC(C)(C)c1ccc(C(=O)c2ccc3n2Cc2ccccc2N(C(=O)c2ccc(C4CCCCC4)cc2)C3)cc1` [Example 5, [4-(tert-Butyl)phenyl][10-(4-cyclohexyl-benzoyl)-10,11-dihydro-5H-pyrrolo[2,1-c][1,4]benzodiazepin-3-yl]methanone] yielded an inhibition at 0.1 µM of 3%.
`CN(C)CCCNC(=O)c1ccc2n1Cc1ccccc1N(C(=O)c1ccc(C3CCCCC3)cc1)C2` [Example 33, 10-(4-Cyclohexyl-benzoyl)-N-[3-(dimethylamino)propyl]-10,11-dihydro-5H-pyrrolo[2,1-c][1,4]benzodiazepine-3-carboxamide] gave an inhibition at 0.1 µM of 27%.
In the case of `O=C(NCCCn1ccnc1)c1ccc2n1Cc1ccccc1N(C(=O)c1ccc(C3CCCCC3)cc1)C2` [Example 36, 10-(4-Cyclohexyl-benzoyl)-N-[3-(1H-imidazol-1-yl)propyl]-10,11-dihydro-5H-pyrrolo[2,1-c][1,4]benzodiazepine-3-carboxamide], the inhibition at 0.1 µM is reported as 3%.
For `O=C(c1ccc(C2CCCCC2)cc1)N1Cc2ccc(C(=O)N3CCC[C@H]3CN3CCCC3)n2Cc2ccccc21` [Example 46, [10-(4-Cyclohexyl-benzoyl)-10,11-dihydro-5H-pyrrolo[2,1-c][1.4]benzodiazepin-3-yl][(2S)-2-(1-pyrrolidinylmethyl)pyrrolidinyl]methanone], the “V1a % inhibition at 100 nM” value was 21%.
For `O=C(c1ccc(C2CCCCC2)cc1)N1Cc2ccc(C(=O)n3ccnc3)n2Cc2ccccc21` [Example 56, 1H-Imidazol-1-yl-[10-(4-cyclohexyl-benzoyl)-10,11-dihydro-5H-pyrrolo[2,1-c][1,4]benzodiazepin-3-yl]-methanone], the inhibition at 0.1 µM was 16%.
Work on `O=C(NCc1ccccn1)c1ccc2n1Cc1ccccc1N(C(=O)c1ccc(C3CCCCC3)cc1)C2` [Example 50, 10-(4-Cyclohexyl-benzoyl)-N-(2-pyridinylmethyl)-10,11-dihydro-5H-pyrrolo[2,1-c][1,4]benzodiazepine-3-carboxamide] yielded an inhibition at 0.1 µM of 3%.
`CN(C)CCN(C)C(=O)c1ccc2n1Cc1ccccc1N(C(=O)c1ccc(C3CCCCC3)cc1)C2` [Example 34, 10-(4-Cyclohexyl-benzoyl)-N-[2-(dimethylamino)-ethyl]-N-methyl-10,11-dihydro-5H-pyrrolo[2,1-c][1,4]benzodiazepine-3-carboxamide] showed an inhibition at 0.1 µM of 3%.
With `O=C(NNC(=O)C1CC1)c1ccc2n1Cc1ccccc1N(C(=O)c1ccc(C3CCCCC3)cc1)C2` [Example 13, 10-(4-Cyclohexyl-benzoyl)-N′-(cyclopropylcarbonyl)-10,11-dihydro-5H-pyrrolo[2,1-c][1,4]benzodiazepine-3-carbonyl-hydrazide] the “V1a % inhibition at 100 nM” value was 35%.
In the case of `Cc1ccccc1C(=O)NNC(=O)c1ccc2n1Cc1ccccc1N(C(=O)c1ccc(C3CCCCC3)cc1)C2` [Example 12, 10-(4-Cyclohexyl-benzoyl)-N′-(2-methylbenzoyl)-10,11-dihydro-5H-pyrrolo[2,1-c][1,4]benzodiazepine-3-carbonyl-hydrazide], the “V1a % inhibition at 100 nM” value is reported as 31%.
With `O=C(c1ccc2n1Cc1ccccc1N(C(=O)c1ccc(C3CCCCC3)cc1)C2)N1CCN(CCN2CCOCC2)CC1` [Example 42, [10(4-Cyclohexyl-benzoyl)-10,11-dihydro-5H-pyrrolo[2,1-c][1,4]benzodiazepin-3-yl]{4-[2-(4-morpholinyl)ethyl]-1-piperazinyl}methanone] the inhibition at 0.1 µM was 28%.
In the case of `O=C(c1ccc2n1Cc1ccccc1N(C(=O)c1ccc(C3CCCCC3)cc1)C2)N1CCN(c2ccncc2)CC1` [Example 54, [10-(4-Cyclohexyl-benzoyl)-10,11-dihydro-5H-pyrrolo[2,1-c][1,4]benzpdiazepin-3-yl][4-(4-pyridinyl)-1-piperazinyl]-methanone], the “V1a % inhibition at 100 nM” value is reported as 0%.
`COc1ccc(NC(=O)c2ccc3n2Cc2ccccc2N(C(=O)c2ccc(C4CCCCC4)cc2)C3)cc1` [Example 29, 10-(4-Cyclohexyl-benzoyl)-10,11-dihydro-5H-pyrrolo[2,1-c][1,4]benzodiazepine-3-carboxylic acid (4-methoxy-phenyl)-amide] showed an inhibition at 0.1 µM of 2%.
In the case of `O=C(O)c1ccc2n1Cc1ccccc1N(C(=O)c1ccc(C3CCCCC3)cc1)C2` [Example 22, 10-(4-Cyclohexyl-benzoyl)-10,11-dihydro-5H-pyrrolo[2,1 c][1,4]benzodiazepine-3-carboxylic acid], the “V1a % inhibition at 100 nM” value is reported as 13%.
With `CN(N)C(=O)c1ccc2n1Cc1ccccc1N(C(=O)c1ccc(C3CCCCC3)cc1)C2` [Example 21, 10-(4-Cyclohexyl-benzoyl)-N-methyl-10,11-dihydro-5H-pyrrolo[2,1-c][1,4]benzodiazepine-3-carboxylic acid hydrazide] the inhibition at 0.1 µM was 21%.
In the case of `O=C(c1ccc2n1Cc1ccccc1N(C(=O)c1ccc(C3CCCCC3)cc1)C2)N1CCN(CCO)CC1` [Example 48, [10-(4-Cyclohexyl-benzoyl)-10,11-dihydro-5H-pyrrolo[2,1-c][1,4]benzodiazepin-3-y][4-(2-hydroxyethyl)-1-piperazinyl]methanone], the “V1a % inhibition at 100 nM” value is reported as 35%.

Same assay, conditions: [3H]Manning ligand, value in parentheses
`CN1CCN(C(=O)c2ccc3n2Cc2ccccc2N(C(=O)c2ccc(C4CCCCC4)cc2)C3)CC1` [Example 24, [10-(4-Cyclohexyl-benzoyl)-10,11-dihydro-5H-pyrrolo[2,1-c][1,4]benzodiazepin-3-yl](4-methyl-1-piperazinyl)-methanone] gave an IC50 of 0.203 µM.
`CN(C)/C=N/C(=O)c1ccc2n1Cc1ccccc1N(C(=O)c1ccc(C3CCCCC3)cc1)C2` [Example 17] gave an IC50 of 0.306 µM.
For `CN(C)NC(=O)c1ccc2n1Cc1ccccc1N(C(=O)c1ccc(C3CCCCC3)cc1)C2` [Example 19, 10-(4-Cyclohexyl-benzoyl)-N′-N′-dimethyl-10,11-dihydro-5H-pyrrolo[2,1-c][1,4]benzodiazepine-3-carbohydrazide], the IC50 was 0.88 µM.
Molecule `O=C(c1ccc2n1Cc1ccccc1N(C(=O)c1ccc(C3CCCCC3)cc1)C2)N1CCN(c2ncccn2)CC1` [Example 23] has an IC50 of 0.635 µM.
`O=C(c1ccc2n1Cc1ccccc1N(C(=O)c1ccc(C3CCCCC3)cc1)C2)N1CCC(N2CCCC2)CC1` [Example 25, [10-(4-Cyclohexyl-benzoyl)-10,11-dihydro-5H-pyrrolo[2,1-c][1,4]benzodiazepin-3-yl][4-(1-pyrrolidinyl)-1-piperidinyl]methanone] gave an IC50 of 0.0904 µM.
In the case of `CC(=O)NNC(=O)c1ccc2n1Cc1ccccc1N(C(=O)c1ccc(C3CCCCC3)cc1)C2` [Example 11, N′-Acetyl-10-(4-cyclohexyl-benzoyl)-10,11-dihydro-5H-pyrrolo[2,1-c][1,4]benzodiazepine-3-carbonyl-hydrazide], the IC50 is reported as 0.367 µM.
For `O=C(c1ccc2n1Cc1ccccc1N(C(=O)c1ccc(C3CCCCC3)cc1)C2)N1CCN(c2ccccn2)CC1` [Example 28, [10-(4-Cyclohexyl-benzoyl)-10,11-dihydro-5H-pyrrolo[2,1-c][1,4]benzodiazepine 3-yl][4-(2-pyridinyl)-1-piperazinyl]-methanone], the IC50 was greater than 1 µM.
With `CC(=O)c1ccc2n1Cc1ccccc1N(C(=O)c1ccc(C3CCCCC3)cc1)C2` [Example 6, 1-[10-(4-Cyclohexyl-benzoyl)-10,11-dihydro-5H-pyrrolo[2,1-c][1,4]benzodiazepin-3-yl]-ethanone] the IC50 was 0.258 µM.

System: not given
Experiment: not given
Conditions: not given
Work on `CC(C)(C)c1ccc(C(=O)c2ccc3n2Cc2ccccc2N(C(=O)c2ccc(C4CCCCC4)cc2)C3)cc1` [Example 5, [4-(tert-Butyl)phenyl][10-(4-cyclohexyl-benzoyl)-10,11-dihydro-5H-pyrrolo[2,1-c][1,4]benzodiazepin-3-yl]methanone] yielded a melting point of 143 to 145 °C.
Molecule `CN1CCN(C(=O)c2ccc3n2Cc2ccccc2N(C(=O)c2ccc(C4CCCCC4)cc2)C3)CC1` [Example 24, [10-(4-Cyclohexyl-benzoyl)-10,11-dihydro-5H-pyrrolo[2,1-c][1,4]benzodiazepin-3-yl](4-methyl-1-piperazinyl)-methanone] has a melting point of 134 to 136 °C.
For `CN(C)/C=N/C(=O)c1ccc2n1Cc1ccccc1N(C(=O)c1ccc(C3CCCCC3)cc1)C2` [Example 17], the melting point was 216 to 218 °C.
With `CN(C)NC(=O)c1ccc2n1Cc1ccccc1N(C(=O)c1ccc(C3CCCCC3)cc1)C2` [Example 19, 10-(4-Cyclohexyl-benzoyl)-N′-N′-dimethyl-10,11-dihydro-5H-pyrrolo[2,1-c][1,4]benzodiazepine-3-carbohydrazide] the melting point was 182 to 183 °C.
